Patent US20140107109A1, “AMINO-DIHYDROTHIAZINE AND AMINO-DIOXIDO DIHYDROTHIAZINE COMPOUNDS AS BETA-SECRETASE ANTAGONISTS AND METHODS OF USE” (Amgen Inc., priority 2012, published 2014)
Where two headings read alike, the source gives them in different places.

Columns and labels:
[1] = target: Beta Secretase enzyme (BACE1) (Homo sapiens, UniProt P56817); assay: In vitro enzymatic BACE FRET assay; assay type: biochemical; conditions: read-out: BACE1 FRET assay IC50
Method in brief: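 Readout: dequenched fluorescence (ex 488 nm/[…]) after neutralizing with Tris buffer. Reactions, begun by adding 50 nM quenched peptide substrate spanning the BACE cleavage site, were incubated one hour at pH 4.2 in 0.05 M acetate with 100 uM genapol and 10% final DMSO.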

Cathepsin D (Cat D) = target: T1, Cathepsin D (Cat D) (Homo sapiens, UniProt P07339); assay: In vitro enzymatic Cathepsin D (Cat D) FRET assay; assay type: biochemical; conditions: read-out: CatD IC50
T1 construct: Recombinant Cat D was expressed in CHO cells; made in house; host or cells: CHO cells
T1 sequence (P07339 65-412, species assumed): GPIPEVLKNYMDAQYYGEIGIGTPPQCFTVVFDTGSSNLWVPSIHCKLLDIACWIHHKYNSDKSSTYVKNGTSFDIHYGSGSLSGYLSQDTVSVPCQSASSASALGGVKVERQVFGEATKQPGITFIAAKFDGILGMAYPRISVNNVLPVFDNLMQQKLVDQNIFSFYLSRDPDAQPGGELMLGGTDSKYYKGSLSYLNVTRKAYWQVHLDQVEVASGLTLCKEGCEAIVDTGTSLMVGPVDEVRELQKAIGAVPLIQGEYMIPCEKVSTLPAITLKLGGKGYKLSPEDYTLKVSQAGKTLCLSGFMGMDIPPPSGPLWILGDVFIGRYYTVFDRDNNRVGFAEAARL
Method in brief: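 FRET read-out: a fluorophore/quencher-labelled peptide substrate is cleaved by 9 nM Cat D (recombinant, CHO-expressed) following a one-hour preincubation with inhibitor dilutions in DMSO. Tris buffer added to neutralize pH ends the reaction before fluorescence measurement.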

[2] = system: Aβ40 in conditioned medium of cells stably expressing Amyloid Precursor Protein (APP); assay: In vitro BACE cell-based assay (HEK cell assay), Aβ40 sandwich ELISA; conditions: Homo sapiens, HEK293
Method in brief: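 Aβ40 in conditioned medium was quantified by time-resolved fluorescence sandwich ELISA (pAb40 capture 3 h at 4 °C, biotin-6E10 detection 2 h at 4 °C) after 24 h compound exposure of APP-expressing cells. Doses spanned 10 points from 100 μM or 10 μM top, 0.1% DMSO; IC50 was derived from percent of control.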

Chain of Beta Secretase enzyme (BACE1) (P56817 46-501): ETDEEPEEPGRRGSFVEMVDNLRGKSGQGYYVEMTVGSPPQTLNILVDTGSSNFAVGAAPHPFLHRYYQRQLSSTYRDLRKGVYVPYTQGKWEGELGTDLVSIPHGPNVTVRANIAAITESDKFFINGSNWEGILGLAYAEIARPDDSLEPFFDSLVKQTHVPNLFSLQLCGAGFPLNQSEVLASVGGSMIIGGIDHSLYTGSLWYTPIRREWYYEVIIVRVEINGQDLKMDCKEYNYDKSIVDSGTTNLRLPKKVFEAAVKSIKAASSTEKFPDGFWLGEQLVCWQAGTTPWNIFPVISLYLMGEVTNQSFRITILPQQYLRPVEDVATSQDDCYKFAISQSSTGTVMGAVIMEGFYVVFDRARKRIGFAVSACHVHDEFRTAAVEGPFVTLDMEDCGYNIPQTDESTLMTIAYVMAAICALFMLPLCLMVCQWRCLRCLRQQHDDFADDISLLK

IC50 [1]	IC50 (Cathepsin D (Cat D))	IC50 ([2]; Aβ40, 24 h incubation)	IC50 ([1]; average IC50, enzyme assay)	IC50 ([2]; average IC50, cell assay)	SMILES	IC50 [2]
0.135 µM	56.3 µM	5.04 µM	–	–	CC1(C)C(N)=N[C@](C)(c2cc(Oc3cc(F)cc(C(F)(F)F)c3)ccc2F)CS1(=O)=O [Example 98, (R)-5-amino-3-(2-fluoro-5-(3-fluoro-5-(trifluoromethyl)phenoxy)phenyl)-3,6,6-trimethyl-3,6-dihydro-2H-1,4-thiazine 1,1-dioxide]	–
–	407 µM	–	0.413 µM	0.427 µM	Cc1cccc(Oc2ccc(F)c([C@]3(C)CS(=O)(=O)C(C)(C)C(N)=N3)c2)n1 [Example 266, (5R)-5-(2-fluoro-5-((6-methyl-2-pyridinyl)oxy)phenyl)-2,2,5-trimethyl-5,6-dihydro-2H-1,4-thiazin-3-amine 1,1-dioxide]	–
–	56.1 µM	–	0.00073 µM	0.0407 µM	CC1(C)C(N)=N[C@](CF)(c2cc(Nc3ncnc4cc(C#N)cnc34)ccc2F)CS1(=O)=O [Example 236, 4-((3-((3S)-5-amino-3-(fluoromethyl)-6,6-dimethyl-1,1-dioxido-3,6-dihydro-2H-1,4-thiazin-3-yl)-4-fluorophenyl)amino)pyrido[3,2-d]pyrimidine-7-carbonitrile]	–
–	132 µM	–	0.248 µM	0.574 µM	CC1(C)C(N)=N[C@](C)(c2cc(Oc3cccc(C(F)(F)F)n3)ccc2F)CS1(=O)=O [Example 269, (5R)-5-(2-fluoro-5-((6-(trifluoromethyl)-2-pyridinyl)oxy)phenyl)-2,2,5-trimethyl-5,6-dihydro-2H-1,4-thiazin-3-amine 1,1-dioxide]	–
–	92.7 µM	–	0.0509 µM	0.568 µM	CC1(C)C(N)=N[C@](C)(c2cc(Oc3cc(-c4ccccc4)ccn3)ccc2F)CS1(=O)=O [Example 289, (5R)-5-(2-fluoro-5-((4-phenyl-2-pyridinyl)oxy)phenyl)-2,2,5-trimethyl-5,6-dihydro-2H-1,4-thiazin-3-amine 1,1-dioxide]	–
–	317 µM	–	0.0102 µM	0.0233 µM	CC1(C)C(N)=N[C@](C)(c2cc(NC(=O)c3ccc(Cl)cc3)ccc2F)CS1(=O)=O [Example 212, N-(3-((3R)-5-amino-3,6,6-trimethyl-1,1-dioxido-3,6-dihydro-2H-1,4-thiazin-3-yl)-4-fluorophenyl)-4-chlorobenzamide]	–
–	> 400 µM	–	1.5 µM	1.01 µM	CC1(C)C(N)=N[C@](C)(c2cc(Oc3ncccc3N)ccc2F)CS1(=O)=O [Example 273, (5R)-5-(5-((3-amino-2-pyridinyl)oxy)-2-fluorophenyl)-2,2,5-trimethyl-5,6-dihydro-2H-1,4-thiazin-3-amine 1,1-dioxide]	–
0.0019 µM	233 µM	–	–	–	CC1(C)C(N)=N[C@](C)(c2cc(NC(=O)c3ccc(C#N)cn3)cnc2F)CS1(=O)=O [Example 403, N-(5-((3R)-5-amino-3,6,6-trimethyl-1,1-dioxido-3,6-dihydro-2H-1,4-thiazin-3-yl)-6-fluoro-3-pyridinyl)-5-cyano-2-pyridinecarboxamide]	0.0146 µM
–	68.2 µM	–	0.00326 µM	0.0308 µM	CC1(C)C(N)=N[C@](CF)(c2cc(Nc3ncnc4cc(Cl)cnc34)ccc2F)CS1(=O)=O [Example 235, N-(3-((3S)-5-amino-3-(fluoromethyl)-6,6-dimethyl-1,1-dioxido-3,6-dihydro-2H-1,4-thiazin-3-yl)-4-fluorophenyl)-7-chloropyrido[3,2-d]pyrimidin-4-amine]	–

SMILES	IC50 [1]	IC50 (Cathepsin D (Cat D))	IC50 ([2]; Aβ40, 24 h incubation)	IC50 ([1]; average IC50, enzyme assay)	IC50 ([2]; average IC50, cell assay)	IC50 [2]
Cc1cc(OC(F)F)cnc1C(=O)Nc1ccc(F)c([C@]2(C)CS(=O)(=O)C(C)(C)C(N)=N2)c1 [Example 144, (R)—N-(3-(5-amino-3,6,6-trimethyl-1,1-dioxido-3,6-dihydro-2H-1,4-thiazin-3-yl)-4-fluorophenyl)-5-(difluoromethoxy)-3-methylpicolinamide]	0.0006 µM	96.7 µM	–	–	–	0.0016 µM
